In series [1] the test system is plasma testosterone. Put plainly: Plasma testosterone in rats four hours after oral gavage of increasing dosage (FIG. 1). In kind it is in vivo. To be noted: Sprague-Dawley rats, in olive oil. As to the method:
The concentration of testosterone in the plasma of Sprague-Dawley rats was determined four hours after delivery by oral gavage of increasing dosage of the racemate or of the indicated enantiomer.
The effect of ketoconazole and the ketoconazole enantiomers on testosterone levels in the plasma of Sprague Dawley rats was determined. […] To generate the results shown in FIG. 1, fifteen groups (ten per group) of rats were used. The rats were maintained on a 14/10 hour light/dark cycle and allowed free access to food and water. Each rat was dosed with the indicated drug (or vehicle) at the indicated dosage via a gastric tube. All of the rats were dosed between 2.00 and 3.00 pm and were sacrificed four hours later (between 6.00 and 7.00 pm). Plasma was prepared and the concentration of testosterone determined by an enzyme linked immuno assay (ELISA).

Series [2] deals with plasma testosterone. Description: Time course of depression of plasma testosterone in rats after 200 mg/kg (FIG. 2). The series is classed as in vivo. To be noted: Sprague-Dawley rats, 200 mg/kg oral gavage, indicated times after dosing. As to the method:
The rats were maintained and dosed as described above. Plasma was prepared at the indicated times after dosing and the concentration of testosterone in the plasma determined by ELISA.

Series [3] can be described thus: Plasma levels of the two ketoconazole enantiomers in patients after fourteen daily doses (FIG. 4, FIG. 5). The series is classed as in vivo, humans. To be noted: for hepatic extraction (from the plasma into the liver): inferred from plasma profiles in patients; for plasma level (pharmacokinetic profile) of the enantiomer after racemic ketoconazole: 400 mg racemic ketoconazole (200 mg 2S,4R and 200 mg 2R,4S) once per day. As to the method: Each patient was given the appropriate drug once per day in the evening. After fourteen daily doses the level of each of the two enantiomers present in the plasma of the patients was determined at the indicated time points following the last dose of drug.
Assays were established and validated using isolated and purified enantiomers. […] Solid phase extraction (SPE) and HPLC/MS/MS were used to determine the concentration of the enantiomers 2R,4S and 2S,4R, of Ketoconzaole from human plasma. 2R,4S and 2S,4R Ketoconzaole were extracted from the plasma sample using SPE, 96 well plates packed with a reversed phase C8 extraction beds from Varian (Lake Forest, Calif.). An aliquot of the extract was injected onto a HPLC/MS/MS triple quadrupole mass spectrometer (Sciex API3000). A Chiralpak AD-H, 5 μm HPLC column (2.1×150 mm) from Chiral Technologies (West Chester, Pa.) preceded by an AD-H guard column (0.4×1.0 cm) were used to separate 2R,4S and 2S,4R Ketoconzaole and the internal standard terconazole. The peak area of multiple product ions (531.4→82.2, […], and 531.4→489.5) of the enantiomers of Ketoconzaole were summed and measured against the peak area of the product ion of the internal standard (terconazole, 534.5-÷ 219.3). Quantitation was performed using 1/x^2 weighted linear least squares regression line generated from similarly extracted plasma calibration samples ranging from 5 to 1000 ng/mL. All plasma was preserved with K3EDTA.

Another series has as its system 17,20 lyase. To be noted: cited from earlier work.
For series [4] the following is noted: oral racemic ketoconazole, healthy subjects; cited from earlier work.
The target of a further series is T1, 17α hydroxylase (Homo sapiens, UniProt P05093).
T1 sequence (P05093 1-508): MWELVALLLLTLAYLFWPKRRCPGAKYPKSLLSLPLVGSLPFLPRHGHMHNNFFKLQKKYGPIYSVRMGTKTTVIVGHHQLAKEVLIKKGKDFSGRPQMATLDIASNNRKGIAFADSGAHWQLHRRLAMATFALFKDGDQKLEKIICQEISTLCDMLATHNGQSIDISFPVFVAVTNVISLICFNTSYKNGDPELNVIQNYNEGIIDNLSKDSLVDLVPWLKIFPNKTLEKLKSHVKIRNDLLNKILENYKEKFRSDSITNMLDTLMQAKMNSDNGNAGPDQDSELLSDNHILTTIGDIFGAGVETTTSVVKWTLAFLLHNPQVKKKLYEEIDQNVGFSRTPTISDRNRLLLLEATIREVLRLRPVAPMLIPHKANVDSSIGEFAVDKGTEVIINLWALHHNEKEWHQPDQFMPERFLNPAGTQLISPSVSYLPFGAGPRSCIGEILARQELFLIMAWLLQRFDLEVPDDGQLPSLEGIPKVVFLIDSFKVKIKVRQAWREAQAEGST
To be noted: cited from earlier work.

The conditions of series [5]: ketoconazole treated patients; cited from earlier work.
The conditions of series [6]: isolated guinea pig hearts; cited from earlier work.
The conditions of series [7]: accelerated in the presence of water and elevated temperatures; cited from earlier work.
Where [8] appears, read: patients, after fourteen daily doses.

Each structure is given as a SMILES string. Entries after “also recorded” stand apart in the source; their conditions may differ.

Regarding `CC(=O)N1CCN(c2ccc(OC[C@@H]3CO[C@@](Cn4ccnc4)(c4ccc(Cl)cc4Cl)O3)cc2)CC1` [2S,4R enantiomer], the “lowering of plasma testosterone” value with plasma testosterone [1] is “more effective at lowering testosterone than any either racemic ketoconazole or the 2R,4S enantiomer of ketoconazole; also recorded: significantly more efficacious than both the ketoconazole racemate and the other cis enantiomer (2R,4S)”. Besides, the “time course of depression of plasma testosterone” value is recorded as “more effective at lowering testosterone than either racemic ketoconazole or the other cis enantiomer present in racemic ketoconazole (2R,4S)” with plasma testosterone [2] (200 mg/kg) and “significantly more efficacious than 2R,4S with respect to reducing testosterone levels” with plasma testosterone [2] (listed as 2S,4R, 200 mg/kg). The “hepatic extraction (from the plasma into the liver)” value in series [3] was “relatively low hepatic extraction”. Moreover, the “plasma level (pharmacokinetic profile) of the 2S,4R enantiomer given alone” value in series [3] (patients, 200 mg 2S,4R enantiomer once per day, after fourteen daily doses) was “very similar when given alone; also recorded: approximately the same as the plasma level of the 2S,4R enantiomer when patients are given both 200 mg 2S,4R and 200 mg 2R,4S”. The “plasma level (pharmacokinetic profile) of the enantiomer after racemic ketoconazole” value in series [3] (setting [8]) is recorded as “significantly greater than the pharmacokinetic profile of the 2R,4S enantiomer”. Also, in the series with 17,20 lyase, the “potency toward 17,20 lyase” value is given as “more potent toward 17,20 lyase than is the other enantiomer 2R,4S”. Besides, the “plasma level of the enantiomer after racemic ketoconazole” value in series [4] was “approximately three times greater than that of the 2R,4S enantiomer”.
For `CC(=O)N1CCN(c2ccc(OC[C@H]3CO[C@](Cn4ccnc4)(c4ccc(Cl)cc4Cl)O3)cc2)CC1` (single isomer, unassigned) [2R,4S enantiomer, reference compound], in series [3], the “hepatic extraction (from the plasma into the liver)” value is “more efficient extraction”. The “plasma level (pharmacokinetic profile) of the enantiomer after racemic ketoconazole” value in series [3] (setting [8]) was “approximately one third of the plasma concentration of the 2S,4R enantiomer”.
Regarding `CC(=O)N1CCN(c2ccc(OCC3COC(Cn4ccnc4)(c4ccc(Cl)cc4Cl)O3)cc2)CC1` (racemic) [racemic ketoconazole, 1-acetyl-4-[4-[[2-(2,4-dichlorophenyl)-2-[(1H-imidazol-1-yl)-methyl]-1,3-dioxolan-4-yl]methoxy]phenyl]piperazine], the “lowering of plasma testosterone” value with plasma testosterone [1] was “dose dependent effect”. In addition, in the series with plasma testosterone [2], the “time course of depression of plasma testosterone” value is on record as “testosterone levels recover following dosing”. Also, the “potency toward 17,20 lyase” value in the series on 17,20 lyase is given as “inhibit”. Moreover, on 17α hydroxylase, the “inhibition of 17α hydroxylase” value is reported as “inhibit”. For the same molecule, in [5], the “level of liver specific enzymes in the serum” value is reported as “increase in these enzymes has been noted”. In [6], the “risk of cardiac arrhythmia” value is listed as “may be associated with an increased risk of cardiac arrhythmia”. In addition, the “degradation (oxidation)” value in series [7] is listed as “can undergo degradation (oxidation)”.

Source of the values: patent US20100280046A1, “Methods and Compositions for Treating Prostate Cancer, Benign Prostatic Hypertrophy, Polycystic Ovary Syndrome and Other Conditions” (DIOBEX, INC., priority 2006, published 2010).
